Measurements taken from patent US20230190754A1, “Therapeutic combinations for the treatment of Progressive Fibrosing interstitial lung diseases” (Boehringer Ingelheim International GmbH, priority 2021, published 2023).

System: IPF patients
Assay: Phase II clinical trial in IPF patients: Treatment Emergent Adverse Events (safety/tolerability), up to 13 weeks
[1] = AF-group (antifibrotic background), 18 mg b.i.d.

## [O-][S@+]1CCc2nc(N3CCC(c4ncc(Cl)cn4)CC3)nc(NC3(CO)CCC3)c21 [Comp. of form. III]
AF Ninted., N = 26
  Arthralgia, %: (7.7) %
  Bronchitis, %: (3.8) %
  Condition aggravated, %: (3.8) %
  Cough, %: (7.7) %
  Decreased appetite, %: (7.7) %
  Diarrhoea, %: (46.2) %
  Dyspepsia, %: (3.8) %
  Fatigue, %: (3.8) %
  Flatulence, %: (3.8) %
  Gastrointestinal disorders, %: (46.2) %
  General Disorders and Administration Side conditions, %: (19.2) %
  Headache, %: (7.7) %
  Infections and infestations, %: (23.1) %
  Investigations, %: (26.9) %
  Metabolism and nutrition disorders, %: (11.5) %
  Musculoskeletal and connective tissue disorders, %: (7.7) %
  Nasopharyngitis, %: (15.4) %
  Nervous system disorders, %: (15.4) %
  Oedema peripheral, %: (3.8) %
  Pyrexia, %: (2.1) %
  Respiratory, thoracic and mediastinal disorders, %: (11.5) %
  Vomiting, %: (3.8) %
AF Pirf., N = 15
  Abdominal Pain, %: (4.3) %
  Asthenia, %: (4.3) %
  Condition aggravated, %: (4.3) %
  Constipation, %: (4.3) %
  Cough, %: (8.7) %
  Diarrhoea, %: (13.0) %
  Dizziness, %: (4.3) %
  Dyspepsia, %: (4.3) %
  Fatigue, %: (4.3) %
  Flatulence, %: (4.3) %
  Gastrointestinal disorders, %: (26.1) %
  General Disorders and Administration Side conditions, %: (8.7) %
  Headache, %: (4.3) %
  Infections and infestations, %: (4.3) %
  Investigations, %: (13.0) %
  Musculoskeletal and connective tissue disorders, %: (4.3) %
  Nausea, %: (4.3) %
  Nervous system disorders, %: (21.7) %
  Respiratory, thoracic and mediastinal disorders, %: (13.0) %
  Rhinorrhoea, %: (4.3) %
  Vomiting, %: (4.3) %
[1]
  AE resulting in death, patients %: (2.0) %
  AE resulting in death, patients n: 1
  AE: Abdominal pain, patients %: (2.0) %
  AE: Abdominal pain, patients n: 1
  AE: Arthralgia, patients %: (4.1) %
  AE: Arthralgia, patients n: 2
  AE: Asthenia, patients %: (2.0) %
  AE: Asthenia, patients n: 1
  AE: Bronchitis, patients %: (2.0) %
  AE: Bronchitis, patients n: 1
  AE: Condition aggravated, patients %: (4.1) %
  AE: Condition aggravated, patients n: 2
  AE: Constipation, patients %: (2.0) %
  AE: Constipation, patients n: 1
  AE: Cough, patients %: (8.2) %
  AE: Cough, patients n: 4
  AE: Decreased appetite, patients %: (4.1) %
  AE: Decreased appetite, patients n: 2
  AE: Diarrhoea, patients %: 30.6%
  AE: Diarrhoea, patients n: 15
  AE: Dizziness, patients %: (2.0) %
  AE: Dizziness, patients n: 1
  AE: Dyspepsia, patients %: (4.1) %
  AE: Dyspepsia, patients n: 2
  AE: Fatigue, patients %: (2.0) %
  AE: Fatigue, patients n: 1
  AE: Flatulence, patients %: (4.1) %
  AE: Flatulence, patients n: 2
  AE: Gastrointestinal disorders, patients %: 36.7%
  AE: Gastrointestinal disorders, patients n: 18
  AE: General disorders and administration site conditions, patients %: (14.3) %
  AE: General disorders and administration site conditions, patients n: 7
  AE: Headache, patients %: (6.1) %
  AE: Headache, patients n: 3
  AE: Infections and infestations, patients %: (14.3) %
  AE: Infections and infestations, patients n: 7
  AE: Investigations, patients %: (20.4) %
  AE: Investigations, patients n: 10
  AE: Metabolism and nutrition disorders, patients %: (6.1) %
  AE: Metabolism and nutrition disorders, patients n: 3
  AE: Musculoskeletal and connective tissue disorders, patients %: (6.1) %
  AE: Musculoskeletal and connective tissue disorders, patients n: 3
  AE: Nasopharyngitis, patients %: (8.2) %
  AE: Nasopharyngitis, patients n: 4
  AE: Nausea, patients %: (2.0) %
  AE: Nausea, patients n: 1
  AE: Nervous system disorders, patients %: (18.4) %
  AE: Nervous system disorders, patients n: 9
  AE: Oedema peripheral, patients %: (2.0) %
  AE: Oedema peripheral, patients n: 1
  AE: Pyrexia, patients %: (2.0) %
  AE: Pyrexia, patients n: 1
  AE: Respiratory, thoracic and mediastinal disorders, patients %: (12.2) %
  AE: Respiratory, thoracic and mediastinal disorders, patients n: 6
  AE: Rhinorrhoea, patients %: (2.0) %
  AE: Rhinorrhoea, patients n: 1
  AE: Vomiting, patients %: (4.1) %
  AE: Vomiting, patients n: 2
  AE: Weight decreased, patients %: (2.0) %
  AE: Weight decreased, patients n: 1
  AEs leading to discontinuation of trial drug, patients %: (20.4) %
  AEs leading to discontinuation of trial drug, patients n: 10
  Any AE, patients n: 36
  SAE: Condition aggravated, patients %: (4.1) %
